This is an account of results in US20240018158A1, “BRM TARGETING COMPOUNDS AND ASSOCIATED METHODS OF USE” (Prelude Therapeutics Incorporated, priority 2020, published 2024).

This assay has as its target SMARCA2 (Homo sapiens (Human), UniProt P51531). Briefly: SMARCA2 HiBiT degradation assay in HEK293T cells. The settings on record: 293T HiBiT assay, 24 h; for DC50: read-out: DC50 (SM2-293T) SMARCA2 degradation potency; for Dmax: HEK-293T, read-out: Dmax % (SM2-293T) maximum SMARCA2 degradation within the concentrations tested. In kind it is cell-based. As for the experimental part: HiBiT peptide knock-in of SMARCA2 in LgBiT expressing HEK293T cells was performed by CRISPR-mediated tagging system as described Promega. The homozygous HiBiT knock-in on c-terminus SMARCA2 was confirmed by sanger sequence. SMARCA2-HiBiT knock-in Hela monoclonal cell (CS302366) and SMARCA4-HiBiT knock-in Hela monoclonal cell (CS3023226) were purchased from Promega. The heterozygous HiBiT-knock-in was confirmed by sanger sequence in both SMARCA2-HiBiT and SMARCA4-HiBiT monoclonal cells. Compounds were prepared in a low dead volume plate at 3-fold serial dilution, and then transferred 25 nL/well into a 384 well plate (Corning: #356661) by Agilent Bravo liquid dispenser. SMARCA2-HiBiT monoclonal HEK293T cells were added at 5,000/well/25 uL into the compound containing 384 well plate. After 24 h incubation, 25 uL/well of Nano-Glo HiBiT Lytic detection buffer (Promega: N3050) was added to the wells and incubate for 10 min on a shaker, centrifuged for 5 min, and then RLU was detected on a microplate reader (Envision, PerkinElmer). The RLU ratio values are normalized to percent inhibition as follows: % inhibition=((HC−LC)−(compound−LC))/(HC−LC))*100, where HC=high control=mean signal of DMSO only; LC=low control=mean signal of 100% inhibition of RLU by 1 μM PRT1001728. An 11-point dose response curve for each compound will be generated using normalized % inhibition to determine IC50 values based on the equation: Y=Bottom+((Top-Bottom)/(1+((IC50/X)^Slope))), where Y is the % inhibition in the presence of X inhibitor concentration; Top=the top plateau of the curve; Bottom=the bottom plateau of the curve; Slope=Hill coefficient; DC50=concentration of compound with 50% degradation in relation to top/high control. DC50 values were determined by using XLfit Model 205.

Chain of SMARCA2 (P51531 whole entry): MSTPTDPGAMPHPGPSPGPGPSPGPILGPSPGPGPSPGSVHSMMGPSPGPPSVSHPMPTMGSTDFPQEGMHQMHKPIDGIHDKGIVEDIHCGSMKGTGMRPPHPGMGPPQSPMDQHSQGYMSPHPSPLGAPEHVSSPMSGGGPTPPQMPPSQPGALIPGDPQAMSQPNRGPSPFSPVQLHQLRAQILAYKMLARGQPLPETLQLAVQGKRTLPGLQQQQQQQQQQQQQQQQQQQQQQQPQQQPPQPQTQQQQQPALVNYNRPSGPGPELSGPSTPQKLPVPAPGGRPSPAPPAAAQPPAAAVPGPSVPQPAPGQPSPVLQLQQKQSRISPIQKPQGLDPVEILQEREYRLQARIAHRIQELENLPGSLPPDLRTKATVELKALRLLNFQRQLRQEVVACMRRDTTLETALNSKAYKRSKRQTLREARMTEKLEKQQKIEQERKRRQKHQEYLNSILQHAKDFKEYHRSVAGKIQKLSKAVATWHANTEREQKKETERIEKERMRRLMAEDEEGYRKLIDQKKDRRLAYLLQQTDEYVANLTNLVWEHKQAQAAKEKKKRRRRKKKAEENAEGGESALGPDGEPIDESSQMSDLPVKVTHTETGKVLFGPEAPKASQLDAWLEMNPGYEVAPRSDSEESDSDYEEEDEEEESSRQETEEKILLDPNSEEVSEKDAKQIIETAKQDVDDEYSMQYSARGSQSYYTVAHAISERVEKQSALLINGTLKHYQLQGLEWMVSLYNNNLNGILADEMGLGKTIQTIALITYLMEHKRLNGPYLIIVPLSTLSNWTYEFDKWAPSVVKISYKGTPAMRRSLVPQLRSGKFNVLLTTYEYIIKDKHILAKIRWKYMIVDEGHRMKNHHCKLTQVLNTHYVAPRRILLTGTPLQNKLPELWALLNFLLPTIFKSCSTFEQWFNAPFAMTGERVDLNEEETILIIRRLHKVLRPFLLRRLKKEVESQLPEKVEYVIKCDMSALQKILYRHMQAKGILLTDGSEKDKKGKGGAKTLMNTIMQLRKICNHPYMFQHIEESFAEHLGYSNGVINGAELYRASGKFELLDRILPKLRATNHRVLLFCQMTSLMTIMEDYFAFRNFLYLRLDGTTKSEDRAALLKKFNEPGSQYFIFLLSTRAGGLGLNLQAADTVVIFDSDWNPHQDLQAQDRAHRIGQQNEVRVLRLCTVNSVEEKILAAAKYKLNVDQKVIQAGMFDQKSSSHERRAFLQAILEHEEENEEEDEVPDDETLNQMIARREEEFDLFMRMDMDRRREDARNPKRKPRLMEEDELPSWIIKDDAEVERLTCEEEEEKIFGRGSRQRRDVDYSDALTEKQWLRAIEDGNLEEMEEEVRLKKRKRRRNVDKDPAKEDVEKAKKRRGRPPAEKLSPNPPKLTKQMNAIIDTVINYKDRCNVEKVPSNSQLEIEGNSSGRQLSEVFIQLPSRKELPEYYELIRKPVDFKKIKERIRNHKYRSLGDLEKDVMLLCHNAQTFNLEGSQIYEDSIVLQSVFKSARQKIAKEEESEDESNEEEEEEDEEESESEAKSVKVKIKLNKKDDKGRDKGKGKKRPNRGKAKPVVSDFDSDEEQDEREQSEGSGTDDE

Turning to `Cc1ncsc1-c1ccc([C@H](C)NC(=O)[C@@H]2C[C@@H](O)CN2C(=O)[C@@H](c2cc(OCCN3CCCC(N4CCN5c6cc(-c7ccccc7O)nnc6NC[C@H]5C4)CC3)no2)C(C)C)cc1` (stereo partly drawn) [Example 16, (2S,4R)-4-hydroxy-1-((2R)-2-(3-(2-(4-((S)-2-(2-hydroxyphenyl)-5,6,6a,7,9,10-hexahydro-8H-pyrazino[1′,2′:4,5]pyrazino[2,3-c]pyridazin-8-yl)azepan-1-yl)ethoxy)isoxazol-5-yl)-3-methylbutanoyl)-N-((S)-1-(4-(4-methylthiazol-5-yl)phenyl)ethyl)pyrrolidine-2-carboxamide], the DC50 is less than 100 nM and the Dmax was greater than 75%.
With `Cc1ncsc1-c1ccc([C@H](C)NC(=O)[C@@H]2C[C@@H](O)CN2C(=O)[C@@H](c2cc(OC(C)CN3CCC(N4CCN5c6cc(-c7ccccc7O)nnc6NC[C@H]5C4)CC3)no2)C(C)C)cc1` (stereo partly drawn) [Example 17, (2S,4R)-4-hydroxy-1-((2R)-2-(3-((1-(4-((S)-2-(2-hydroxyphenyl)-5,6,6a,7,9,10-hexahydro-8H-pyrazino[1′,2′:4,5]pyrazino[2,3-c]pyridazin-8-yl)piperidin-1-yl)propan-2-yl)oxy)isoxazol-5-yl)-3-methylbutanoyl)-N-((S)-1-(4-(4-methylthiazol-5-yl)phenyl)ethyl)pyrrolidine-2-carboxamide], the DC50 was less than 100 nM and the Dmax is greater than 75%.
As to `Cc1ncsc1-c1ccc([C@H](C)NC(=O)[C@@H]2C[C@@H](O)CN2C(=O)[C@@H](c2cc(OCCN3CCC(CN4CCC(N5CCN6c7cc(-c8ccccc8O)nnc7NC[C@H]6C5)CC4)CC3)no2)C(C)C)cc1` [Example 20, (2S,4R)-4-hydroxy-1-((R)-2-(3-(2-(4-((4-((S)-2-(2-hydroxyphenyl)-5,6,6a,7,9,10-hexahydro-8H-pyrazino[1′,2′:4,5]pyrazino[2,3-c]pyridazin-8-yl)piperidin-1-yl)methyl)piperidin-1-yl)ethoxy)isoxazol-5-yl)-3-methylbutanoyl)-N-((S)-1-(4-(4-methylthiazol-5-yl)phenyl)ethyl)pyrrolidine-2-carboxamide], the DC50 is less than 100 nM and the Dmax is greater than 75%.
The matching figures for `Cc1ncsc1-c1ccc([C@H](C)NC(=O)[C@@H]2C[C@@H](O)CN2C(=O)[C@@H](c2cc(OCCN3CCN(CCN4CCC(N5CCN6c7cc(-c8ccccc8O)nnc7NC[C@H]6C5)CC4)CC3)no2)C(C)C)cc1` [Example 21, (2S,4R)-4-hydroxy-1-((R)-2-(3-(2-(4-(2-(4-((S)-2-(2-hydroxyphenyl)-5,6,6a,7,9,10-hexahydro-8H-pyrazino[1′,2′:4,5]pyrazino[2,3-c]pyridazin-8-yl)piperidin-1-yl)ethyl)piperazin-1-yl)ethoxy)isoxazol-5-yl)-3-methylbutanoyl)-N-((S)-1-(4-(4-methylthiazol-5-yl)phenyl)ethyl)pyrrolidine-2-carboxamide]: less than 100 nM and greater than 75%.
The matching figures for `Cc1ncsc1-c1ccc([C@H](C)NC(=O)[C@@H]2C[C@@H](O)CN2C(=O)[C@@H](c2cc(OCCN3CCC(CCN4CCC(N5CCN6c7cc(-c8ccccc8O)nnc7NC[C@H]6C5)CC4)CC3)no2)C(C)C)cc1` [Example 22, (2S,4R)-4-hydroxy-1-((R)-2-(3-(2-(4-(2-(4-((S)-2-(2-hydroxyphenyl)-5,6,6a,7,9,10-hexahydro-8H-pyrazino[1′,2′:4,5]pyrazino[2,3-c]pyridazin-8-yl)piperidin-1-yl)ethyl)piperidin-1-yl)ethoxy)isoxazol-5-yl)-3-methylbutanoyl)-N-((S)-1-(4-(4-methylthiazol-5-yl)phenyl)ethyl)pyrrolidine-2-carboxamide]: less than 100 nM and greater than 75%.
With `Cc1ncsc1-c1ccc([C@H](C)NC(=O)[C@@H]2C[C@@H](O)CN2C(=O)[C@@H](c2cc(OC(C)CN3CCCC(CN4CCN5c6cc(-c7ccccc7O)nnc6NC[C@H]5C4)C3)no2)C(C)C)cc1` (stereo partly drawn) [Example 23, (2S,4R)-4-hydroxy-1-((2R)-2-(3-((1-(3-(((S)-2-(2-hydroxyphenyl)-5,6,6a,7,9,10-hexahydro-8H-pyrazino[1′,2′:4,5]pyrazino[2,3-c]pyridazin-8-yl)methyl)piperidin-1-yl)propan-2-yl)oxy)isoxazol-5-yl)-3-methylbutanoyl)-N-((S)-1-(4-(4-methylthiazol-5-yl)phenyl)ethyl)pyrrolidine-2-carboxamide], the DC50 was less than 100 nM and the Dmax is greater than 75%.
Consider `Cc1ncsc1-c1ccc([C@H](C)NC(=O)[C@@H]2C[C@@H](O)CN2C(=O)[C@@H](c2cc(OC(C)CN3CCCC(CN4CCN5c6cc(-c7ccccc7O)nnc6NC[C@H]5C4)C3)no2)C(C)C)cc1` (stereo partly drawn) [Example 24, (2S,4R)-4-hydroxy-1-((2R)-2-(3-((1-(3-(((S)-2-(2-hydroxyphenyl)-5,6,6a,7,9,10-hexahydro-8H-pyrazino[1′,2′:4,5]pyrazino[2,3-c]pyridazin-8-yl)methyl)piperidin-1-yl)propan-2-yl)oxy)isoxazol-5-yl)-3-methylbutanoyl)-N-((S)-1-(4-(4-methylthiazol-5-yl)phenyl)ethyl)pyrrolidine-2-carboxamide], for which the DC50 was less than 100 nM.
On to `Cc1ncsc1-c1ccc([C@H](C)NC(=O)[C@@H]2C[C@@H](O)CN2C(=O)C(c2cc(CN3CCC(CN4CCN5c6cc(-c7ccccc7O)nnc6NC[C@H]5C4)CC3)no2)C(C)C)cc1` (stereo partly drawn) [Example 32, (2S,4R)-4-hydroxy-1-(2-(3-((4-(((S)-2-(2-hydroxyphenyl)-5,6,6a,7,9,10-hexahydro-8H-pyrazino[1′,2′:4,5]pyrazino[2,3-c]pyridazin-8-yl)methyl)piperidin-1-yl)methyl)isoxazol-5-yl)-3-methylbutanoyl)N-((S)-1-(4-(4-methylthiazol-5-yl)phenyl)ethyl)pyrrolidine-2-carboxamide], for which the DC50 was less than 100 nM and the Dmax was greater than 75%.
With `Cc1ncsc1-c1ccc([C@H](C)NC(=O)[C@@H]2C[C@@H](O)CN2C(=O)[C@@H](c2cc(CCCN3CCC(N4CCN5c6cc(-c7ccccc7O)nnc6NC[C@H]5C4)CC3)no2)C(C)C)cc1` [Example 33, (2S,4R)-4-hydroxy-1-((R)-2-(3-(3-(4-((S)-2-(2-hydroxyphenyl)-5,6,6a,7,9,10-hexahydro-8H-pyrazino[1′,2′:4,5]pyrazino[2,3-c]pyridazin-8-yl)piperidin-1-yl)propyl)isoxazol-5-yl)-3-methylbutanoyl)-N-((S)-1-(4-(4-methylthiazol-5-yl)phenyl)ethyl)pyrrolidine-2-carboxamide], the DC50 is less than 100 nM and the Dmax was greater than 75%.
As for `CC(C)[C@@H](C(=O)N1C[C@H](O)C[C@H]1C(=O)N[C@@H](C)c1ccc(C#N)cc1)c1cc(OCCN2CCC(CN3CCN4c5cc(-c6ccccc6O)nnc5NC[C@H]4C3)CC2)no1` [Example 35, (2S,4R)—N-((S)-1-(4-cyanophenyl)ethyl)-4-hydroxy-1-((R)-2-(3-(2-(4-(((S)-2-(2-hydroxyphenyl)-5,6,6a,7,9,10-hexahydro-8H-pyrazino[1′,2′:4,5]pyrazino[2,3-c]pyridazin-8-yl)methyl)piperidin-1-yl)ethoxy)isoxazol-5-yl)-3-methylbutanoyl)pyrrolidine-2-carboxamide], the DC50 was less than 100 nM and the Dmax is greater than 75%.
The matching figures for `Cc1ncsc1-c1ccc([C@H](C)NC(=O)[C@@H]2C[C@@H](O)CN2C(=O)[C@@H](c2cc(OCCN3CCC(CN4CCN5c6cc(-c7ccccc7O)nnc6NC[C@H]5C4)CC3)no2)C(C)C)c(F)c1` [Example 36, (2S,4R)-N-((S)-1-(2-fluoro-4-(4-methylthiazol-5-yl)phenyl)ethyl)-4-hydroxy-1-((R)-2-(3-(2-(4-(((S)-2-(2-hydroxyphenyl)-5,6,6a,7,9,10-hexahydro-8H-pyrazino[1′,2′:4,5]pyrazino[2,3-c]pyridazin-8-yl)methyl)piperidin-1-yl)ethoxy)isoxazol-5-yl)-3-methylbutanoyl)pyrrolidine-2-carboxamide]: less than 100 nM and greater than 75%.
The matching figures for `Cc1nccn1-c1ccc([C@H](C)NC(=O)[C@@H]2C[C@@H](O)CN2C(=O)[C@@H](c2cc(OCCN3CCC(CN4CCN5c6cc(-c7ccccc7O)nnc6NC[C@H]5C4)CC3)no2)C(C)C)cc1` [Example 37, (2S,4R)-4-hydroxy-1-((R)-2-(3-(2-(4-(((S)-2-(2-hydroxyphenyl)-5,6,6a,7,9,10-hexahydro-8H-pyrazino[1′,2′:4,5]pyrazino[2,3-c]pyridazin-8-yl)methyl)piperidin-1-yl)ethoxy)isoxazol-5-yl)-3-methylbutanoyl)-N-((S)-1-(4-(2-methyl-1H-imidazol-1-yl)phenyl)ethyl)pyrrolidine-2-carboxamide]: less than 100 nM and greater than 75%.

The DC50 is the midpoint of the concentration-degradation curve.
